Test results taken from US11028087B2, “2,6-disubstituted-9-cyclopentyl-9H-purines, use thereof as medicaments, and pharmaceutical compositions” (UNIVERZITA PALACKEHO V OLOMOUCI, priority 2017, dated 2021).

Columns and labels:
[1] = system: Kasumi-1 (acute myeloid leukemia, KIT mutation Asn822Lys); test: Calcein AM cytotoxicity assay; assay type: cell-based; conditions: Homo sapiens; comparative example; Kasumi-1, 72 h; read-out: Influence of compounds on proliferation (72 h), EC50 values (μM) Kasumi-1
Excerpt: (§1) Cytotoxicity of the compounds is the major property determining their anticancer effect in vivo. One of the parameters used, as the basis for cytotoxicity assays, is the integrity of cytoplasmic membrane of viable cells. For example, a microtiter assay, which uses acetomethoxy derivate of calcein (Calcein AM), is widely used for evaluation of cell proliferation and cytotoxicity. This assay is used in drug screening programs and in chemosensitivity testing. Intracellular esterases of viable cells convert calcein AM to green-fluorescent calcein of which signal corresponds to the number of viable cells in the culture.
(§2) We have been using the following cell lines: MV4-11 (acute myeloid leukemia, FLT3-ITD positive), MOLM-13 (acute myeloid leukemia, FLT3-ITD positive), THP-1 (acute myeloid leukemia, wt FLT3), U937 (monocytic leukemia, wt FLT3), EOL-1 (eosinophilic leukaemia, carrying the fusion FIP1L1-PDGFRA), H1703 (non-small cell lung carcinoma, PDGFRA amplification). They were maintained in RPMI-1640 supplemented with 10% fetal bovine serum, penicillin (100 U/ml) and streptomycin (100 μg/ml). Kasumi-1 (acute myeloid leukemia, KIT mutation Asn822Lys) cells were cultivated in RPMI-1640 supplemented with 15% fetal bovine serum, penicillin (100 U/ml) and streptomycin (100 μg/ml). K562 and MCF-7 cell lines were maintained in DMEM supplemented with 10% fetal bovine serum, penicilin (100 U/ml) and streptomycin (100 μg/ml). All cell lines were cultivated at 37° C. in 5% CO2. For cytotoxicity assays, cells were seeded in appropriate densities into 96 well plates and the next day tested compounds were added at various concentrations in triplicates. Three days after drug addition, Calcein AM solution (final concentration 1 μg/ml; Thermo Scientific, USA) was added into each well and incubated for 1 h. After this incubation period, fluorescence of the live cells was measured at 485 nm/538 nm (ex/em) with a Fluoroskan Ascent microplate reader (Labsystems).

[2] = system: MOLM-13 (acute myeloid leukemia, FLT3-ITD positive); test: Calcein AM cytotoxicity assay; assay type: cell-based; conditions: Homo sapiens; comparative example; MOLM-13, 72 h; read-out: Influence of compounds on proliferation (72 h), EC50 values (μM) MOLM-13
Excerpt: as §1
as §2, with “They were maintained in RPMI-1640 supplemented with 10% fetal bovine serum, penicillin (100 U/ml) and streptomycin (100 μg/ml). Kasumi-1 (acute myeloid leukemia, KIT mutation Asn822Lys) cells were cultivated in RPMI-1640 supplemented with 15% fetal bovine serum, penicillin (100 U/ml) and streptomycin (100 μg/ml).” left out, “h.” for “h. After this incubation period, fluorescence of the live cells was measured at 485 nm/538 nm (ex/em) with a Fluoroskan Ascent microplate reader (Labsystems).”

K562 = test: Calcein AM cytotoxicity assay; assay type: cell-based; conditions: Homo sapiens; comparative example; K562, 72 h; read-out: Influence of compounds on proliferation (72 h), EC50 values (μM) K562
Excerpt: as §1
as §2, with “They were maintained in RPMI-1640 supplemented with 10% fetal bovine serum, penicillin (100 U/ml) and streptomycin (100 μg/ml). Kasumi-1 (acute myeloid leukemia, KIT mutation Asn822Lys) cells were cultivated in RPMI-1640 supplemented with 15% fetal bovine serum, penicillin (100 U/ml) and streptomycin (100 μg/ml).” left out, “h.” for “h. After this incubation period, fluorescence of the live cells was measured at 485 nm/538 nm (ex/em) with a Fluoroskan Ascent microplate reader (Labsystems).”

[3] = system: MV4-11 (acute myeloid leukemia, FLT3-ITD positive); test: Calcein AM cytotoxicity assay; assay type: cell-based; conditions: Homo sapiens; comparative example; MV4-11, 72 h; read-out: Influence of compounds on proliferation (72 h), EC50 values (μM) MV4-11
Excerpt: as §1
as §2, with “They were maintained in RPMI-1640 supplemented with 10% fetal bovine serum, penicillin (100 U/ml) and streptomycin (100 μg/ml). Kasumi-1 (acute myeloid leukemia, KIT mutation Asn822Lys) cells were cultivated in RPMI-1640 supplemented with 15% fetal bovine serum, penicillin (100 U/ml) and streptomycin (100 μg/ml).” left out, “h.” for “h. After this incubation period, fluorescence of the live cells was measured at 485 nm/538 nm (ex/em) with a Fluoroskan Ascent microplate reader (Labsystems).”

FLT3-ITD = molecular target: T1, FLT3-ITD (Homo sapiens, UniProt P36888); test: Kinase inhibition assay with [γ-33P]ATP; assay type: biochemical; conditions: comparative example; read-out: Influence of compounds on protein kinase inhibition, IC50 values (μM) FLT3 ITD
T1 sequence (P36888 1-993): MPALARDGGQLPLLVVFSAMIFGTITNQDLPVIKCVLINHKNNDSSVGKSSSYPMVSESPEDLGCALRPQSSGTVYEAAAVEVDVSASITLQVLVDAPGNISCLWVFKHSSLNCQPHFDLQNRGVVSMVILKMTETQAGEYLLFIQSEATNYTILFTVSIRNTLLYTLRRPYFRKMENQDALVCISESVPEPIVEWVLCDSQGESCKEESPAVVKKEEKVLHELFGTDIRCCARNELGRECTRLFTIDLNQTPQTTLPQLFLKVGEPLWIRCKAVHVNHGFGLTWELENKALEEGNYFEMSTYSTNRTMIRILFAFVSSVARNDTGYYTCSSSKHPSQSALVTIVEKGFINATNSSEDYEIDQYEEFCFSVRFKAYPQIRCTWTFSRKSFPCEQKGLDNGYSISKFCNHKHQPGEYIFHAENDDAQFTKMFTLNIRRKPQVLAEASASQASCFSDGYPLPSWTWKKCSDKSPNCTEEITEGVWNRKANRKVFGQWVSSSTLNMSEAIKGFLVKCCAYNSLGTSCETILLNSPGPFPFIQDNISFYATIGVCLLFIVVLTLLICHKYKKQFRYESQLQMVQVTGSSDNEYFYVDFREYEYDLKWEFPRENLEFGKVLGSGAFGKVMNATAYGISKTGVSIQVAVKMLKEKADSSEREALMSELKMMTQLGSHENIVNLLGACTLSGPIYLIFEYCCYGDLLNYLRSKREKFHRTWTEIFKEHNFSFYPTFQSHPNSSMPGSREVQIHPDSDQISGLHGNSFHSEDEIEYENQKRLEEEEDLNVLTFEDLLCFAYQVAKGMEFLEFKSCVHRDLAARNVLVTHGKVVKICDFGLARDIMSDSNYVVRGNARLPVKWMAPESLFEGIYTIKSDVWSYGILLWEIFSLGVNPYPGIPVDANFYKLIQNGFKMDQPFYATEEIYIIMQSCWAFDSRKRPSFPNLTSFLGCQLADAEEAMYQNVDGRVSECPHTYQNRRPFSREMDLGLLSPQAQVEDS
Method: (§3) CDK1/Cyclin B and CDK2/Cyclin E kinases were produced in Sf9 insect cells via baculoviral infection and purified on a NiNTA column (Qiagen). CDK5/p35 and CDK7Cyclin H/MAT1, FLT3 WT, FLT3-ITD and FLT3 D835 were purchased from ProQinase GmbH. The kinase reactions were assayed with 1 mg/mL histone H1 (for CDK1, CDK2 and CDK5), (YSPTSPS)2KK peptide (for CDK7) or AGLT substrate (for FLT3) in the presence of 15/15/0.15/1.5/1 μM ATP (for CDK1/CDK2/CDK5/CDK7/FLT3), 0.05 μCi [γ-^33P]ATP and of the test compound in a final volume of 10 μL, all in a reaction buffer (60 mM HEPES-NaOH, pH 7.5, 3 mM MgCl2, 3 mM MnCl2, 3 μM Na-orthovanadate, 1.2 mM DTT, 2.5 μg/50 μl PEG20,000). The reactions were stopped by adding 5 μL of 3% aq H3PO4. Aliquots were spotted onto P-81 phosphocellulose (Whatman), washed 3× with 0.5% aq H3PO4 and finally air-dried.

CDK2/Cyclin E = molecular target: T2, CDK2/Cyclin E (Homo sapiens, UniProt P24941); test: Kinase inhibition assay with [γ-33P]ATP; assay type: biochemical; conditions: comparative example; read-out: Influence of compounds on protein kinase inhibition, IC50 values (μM) CDK2
T2 construct: made in house; host or cells: Sf9 insect cells, baculoviral infection
Method: as §3

[4] = system: THP-1 (acute myeloid leukemia, wt FLT3); test: Calcein AM cytotoxicity assay; assay type: cell-based; conditions: Homo sapiens; comparative example; THP-1, 72 h; read-out: Influence of compounds on proliferation (72 h), EC50 values (μM) THP-1
Excerpt: as §1
as §2, with “They were maintained in RPMI-1640 supplemented with 10% fetal bovine serum, penicillin (100 U/ml) and streptomycin (100 μg/ml). Kasumi-1 (acute myeloid leukemia, KIT mutation Asn822Lys) cells were cultivated in RPMI-1640 supplemented with 15% fetal bovine serum, penicillin (100 U/ml) and streptomycin (100 μg/ml).” left out, “h.” for “h. After this incubation period, fluorescence of the live cells was measured at 485 nm/538 nm (ex/em) with a Fluoroskan Ascent microplate reader (Labsystems).”

[5] = system: EOL-1 (eosinophilic leukaemia, carrying the fusion FIP1L1-PDGFRA); test: Calcein AM cytotoxicity assay; assay type: cell-based; conditions: Homo sapiens, EOL1; comparative example; EOL-1, 72 h; read-out: Influence of compounds on proliferation (72 h), EC50 values (μM) EOL-1
Excerpt: as §1
as §2, with “They were maintained in RPMI-1640 supplemented with 10% fetal bovine serum, penicillin (100 U/ml) and streptomycin (100 μg/ml). Kasumi-1 (acute myeloid leukemia, KIT mutation Asn822Lys) cells were cultivated in RPMI-1640 supplemented with 15% fetal bovine serum, penicillin (100 U/ml) and streptomycin (100 μg/ml).” left out, “h.” for “h. After this incubation period, fluorescence of the live cells was measured at 485 nm/538 nm (ex/em) with a Fluoroskan Ascent microplate reader (Labsystems).”

MCF-7 = test: Calcein AM cytotoxicity assay; assay type: cell-based; conditions: Homo sapiens, MCF7; comparative example; MCF-7, 72 h; read-out: Influence of compounds on proliferation (72 h), EC50 values (μM) MCF-7
Excerpt: as §1
as §2, with “They were maintained in RPMI-1640 supplemented with 10% fetal bovine serum, penicillin (100 U/ml) and streptomycin (100 μg/ml). Kasumi-1 (acute myeloid leukemia, KIT mutation Asn822Lys) cells were cultivated in RPMI-1640 supplemented with 15% fetal bovine serum, penicillin (100 U/ml) and streptomycin (100 μg/ml).” left out, “h.” for “h. After this incubation period, fluorescence of the live cells was measured at 485 nm/538 nm (ex/em) with a Fluoroskan Ascent microplate reader (Labsystems).”

[6] = system: U937 (monocytic leukemia, wt FLT3); test: Calcein AM cytotoxicity assay; assay type: cell-based; conditions: Homo sapiens, U-937; comparative example; U937, 72 h; read-out: Influence of compounds on proliferation (72 h), EC50 values (μM) U937
Excerpt: as §1
as §2, with “They were maintained in RPMI-1640 supplemented with 10% fetal bovine serum, penicillin (100 U/ml) and streptomycin (100 μg/ml). Kasumi-1 (acute myeloid leukemia, KIT mutation Asn822Lys) cells were cultivated in RPMI-1640 supplemented with 15% fetal bovine serum, penicillin (100 U/ml) and streptomycin (100 μg/ml).” left out, “h.” for “h. After this incubation period, fluorescence of the live cells was measured at 485 nm/538 nm (ex/em) with a Fluoroskan Ascent microplate reader (Labsystems).”

IC50 (FLT3-ITD)	IC50 (CDK2/Cyclin E)	SMILES	EC50 [1]	EC50 [2]	EC50 (K562)	EC50 [3]	EC50 [4]	EC50 [5]	EC50 (MCF-7)	EC50 [6]
0.759 µM	> 5 µM	NC1CCC(Nc2nc(Nc3ccc(CN4CCOCC4)cc3)c3ncn(-c4ccccc4)c3n2)CC1 (stereo not drawn) [Phenyl derivative of compound 264, reference compound]	0.722 µM	0.912 µM	1.81 µM	0.648 µM	–	–	–	–
1.03 µM	7.51 µM	NC1CCC(Nc2nc(Nc3ccc(CN4CCOCC4)cc3)c3ncn(Cc4ccccc4)c3n2)CC1 (stereo not drawn) [Benzyl derivative of compound 264, reference compound]	–	1.26 µM	2.69 µM	0.393 µM	14.8 µM	0.491 µM	4.83 µM	2.62 µM
